Measurements: patent US20090093633A1, “Organic Compounds” (Novartis AG, priority 2006, published 2009)
Counter-ions that a name gives are not always drawn.

What follows are compounds tested against adenosine A2A receptor (Homo sapiens, UniProt P29274) (assay: adenosine A2A receptor agonist assay (method of Murphree et al, Molecular Pharmacology 61, 455-462 (2002))). Conditions: method of L. J. Murphree et al, Mol. Pharmacol. 61, 455-462 (2002).
Type: binding
Description: Compounds of formula I and their pharmaceutically acceptable salts are useful as pharmaceuticals. In particular, they activate the adenosine A2A receptor, i.e. they act as A2A receptor agonists.

adenosine A2A receptor, sequence (P29274 whole entry): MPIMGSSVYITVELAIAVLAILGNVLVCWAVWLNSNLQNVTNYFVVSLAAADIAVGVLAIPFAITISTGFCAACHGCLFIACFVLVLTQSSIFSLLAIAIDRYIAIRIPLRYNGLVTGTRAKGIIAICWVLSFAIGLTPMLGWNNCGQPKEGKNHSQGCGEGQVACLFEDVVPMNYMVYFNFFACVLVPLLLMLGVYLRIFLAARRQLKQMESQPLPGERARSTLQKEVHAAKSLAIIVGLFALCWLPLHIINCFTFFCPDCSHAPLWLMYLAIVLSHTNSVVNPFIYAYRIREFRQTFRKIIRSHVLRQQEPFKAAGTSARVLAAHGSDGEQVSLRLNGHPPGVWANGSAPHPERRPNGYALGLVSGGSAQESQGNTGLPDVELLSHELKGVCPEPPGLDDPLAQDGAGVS

`Cc1cnn([C@H]2C[C@@H](n3cnc4c(NCC(c5ccccc5)c5ccccc5)nc(NC5CCC(N)CC5)nc43)[C@H](O)[C@@H]2O)c1` (stereo partly drawn) [Example 1, (1R,2S,3R,5S)-3-[2-(4-Amino-cyclohexylamino)-6-(2,2-diphenyl-ethylamino)-purin-9-yl]-5-(4-methyl-pyrazol-1-yl)-cyclopentane-1,2-diol trifluoroacetate] and `NC1CCC(Nc2nc(NCC(c3ccccc3)c3ccccc3)c3ncn([C@@H]4C[C@H](n5cccn5)[C@@H](O)[C@H]4O)c3n2)CC1` (stereo partly drawn) [Example 12, (1R,2S,3R,5S)-3-[2-(4-Amino-cyclohexylamino)-6-(2,2-diphenyl-ethylamino)-purin-9-yl]-5-pyrazol-1-yl-cyclopentane-1,2-diol] are within 1.5-fold of each other in Ki: 197 nM for the first, 272 nM for the second.

First: Cc1cnn([C@H]2C[C@@H](n3cnc4c(NCC(c5ccccc5)c5ccccc5)nc(NCCc5cnc[nH]5)nc43)[C@H](O)[C@@H]2O)c1 [Example 4, (1R,2S,3R,5S)-3-{6-(2,2-Diphenyl-ethylamino)-2-[2-(3H-imidazol-4-yl)-ethylamino]-purin-9-yl}-5-(4-methyl-pyrazol-1-yl)-cyclopentane-1,2-diol]
Second: CCn1cnc(CCNc2nc(NCC(c3ccccc3)c3ccccc3)c3ncn([C@@H]4C[C@H](n5cc(CO)cn5)[C@@H](O)[C@H]4O)c3n2)c1 [Example 47, (1R,2S,3R,5S)-3-{6-(2,2-Diphenyl-ethylamino)-2-[2-(1-ethyl-1H-imidazol-4-yl)-ethylamino]-purin-9-yl}-5-(4-hydroxymethyl-pyrazol-1-yl)-cyclopentane-1,2-diol]
The Ki of the first is 17-fold higher: 172 nM for the first, 10 nM for the second.

Going from `Cc1cnn([C@H]2C[C@@H](n3cnc4c(N)nc(N[C@@H]5CCC[C@H]5OCc5ccccc5)nc43)[C@H](O)[C@@H]2O)c1` [Example 22, (1R,2S,3R,5S)-3-[6-Amino-2-((1R,2R)-2-benzyloxy-cyclopentylamino)-purin-9-yl]-5-(4-methyl-pyrazol-1-yl)-cyclopentane-1,2-diol] to `CCc1cnn([C@H]2C[C@@H](n3cnc4c(NCCc5ccccc5)nc(NCCc5cn(CC)cn5)nc43)[C@H](O)[C@@H]2O)c1` [Example 54, (1R,2S,3R,5S)-3-{2-[2-(1-Ethyl-1H-imidazol-4-yl)-ethylamino]-6-phenethylamino-purin-9-yl}-5-(4-ethyl-pyrazol-1-yl)-cyclopentane-1,2-diol], the Ki falls from 138 nM to 72 nM (1.9-fold). The second binds more tightly here.

Going from `CCCCC#Cc1nc(N)c2ncn([C@@H]3C[C@H](n4cc(CC)cn4)[C@@H](O)[C@H]3O)c2n1` [Example 37, (1R,2S,3R,5S)-3-(6-Amino-2-hex-1-ynyl-purin-9-yl)-5-(4-ethyl-pyrazol-1-yl)-cyclopentane-1,2-diol] to `CCCCC#Cc1nc(N)c2ncn([C@@H]3C[C@H](n4cc(CO)cn4)[C@@H](O)[C@H]3O)c2n1` [Example 40, (1R,2S,3R,5S)-3-(6-Amino-2-hex-1-ynyl-purin-9-yl)-5-(4-hydroxymethyl-pyrazol-1-yl)-cyclopentane-1,2-diol], the Ki falls from 121 nM to 67 nM (1.8-fold).

`CCc1nnn([C@H]2C[C@@H](n3cnc4c(NCC(c5ccccc5)c5ccccc5)nc(N5CC[C@@H](NC(=O)NC6CCN(c7ccccn7)CC6)C5)nc43)[C@H](O)[C@@H]2O)n1` [Example 45, 1-((R)-1-{6-(2,2-Diphenyl-ethylamino)-9-[(1R,2S,3R,4S)-4-(5-ethyl-tetrazol-2-yl)-2,3-dihydroxy-cyclopentyl]-9H-purin-2-yl}-pyrrolidin-3-yl)-3-(3,4,5,6-tetrahydro-2H-[1,2′]bipyridinyl-4-yl)-urea] and `O=C(NC1CCN(c2ccccn2)CC1)N[C@@H]1CCN(c2nc(NCC(c3ccccc3)c3ccccc3)c3ncn([C@@H]4C[C@H](n5cc(CO)cn5)[C@@H](O)[C@H]4O)c3n2)C1` [Example 77, 1-{(R)-1-[9-[(1R,2S,3R,4S)-2,3-Dihydroxy-4-(4-hydroxymethyl-pyrazol-1-yl)-cyclopentyl]-6-(2,2-diphenyl-ethylamino)-9H-purin-2-yl]-pyrrolidin-3-yl}-3-(3,4,5,6-tetrahydro-2H-[1,2′]bipyridinyl-4-yl)-urea trifluoroacetate] are within 1.5-fold of each other in Ki: 17 nM for the first, 20 nM for the second.

Going from `O=C(N[C@@H]1CCNC1)c1nc(NCC(c2ccccc2)c2ccccc2)c2ncn([C@@H]3C[C@H](n4cc(CO)cn4)C(O)C3O)c2n1` (stereo partly drawn) [Example 64, 9-[(1R,4S)-2,3-Dihydroxy-4-(4-hydroxymethyl-pyrazol-1-yl)-cyclopentyl]-6-(2,2-diphenyl-ethylamino)-9H-purine-2-carboxylic acid (R)pyrrolidin-3-yl amide] to `CN(C)[C@@H]1CCN(c2nc(NCC(c3ccccc3)c3ccccc3)c3ncn([C@@H]4C[C@H](n5cc(CO)cn5)[C@@H](O)[C@H]4O)c3n2)C1` [Example 96, (1R,2S,3R,5S)-3-[2-((R)-3-Dimethylamino-pyrrolidin-1-yl)-6-(2,2-diphenyl-ethylamino)-purin-9-yl]-5-(4-hydroxymethyl-pyrazol-1-yl)-cyclopentane-1,2-diol], the Ki falls from 49 nM to 2 nM (24-fold). The second binds more tightly here.

Going from `Cc1nnn([C@H]2C[C@@H](n3cnc4c(NCC(c5ccccc5)c5ccccc5)nc(N5CC[C@@H](NS(C)(=O)=O)C5)nc43)[C@H](O)[C@@H]2O)n1` [Example 67, N-{(R)-1-[9-[(1R,2S,3R,4S)-2,3-Dihydroxy-4-(5-methyl-tetrazol-2-yl)-cyclopentyl]-6-(2,2-diphenyl-ethylamino)-9H-purin-2-yl]pyrrolidin-3-yl}-methanesulfonamide] to `CCc1cnn([C@H]2C[C@@H](n3cnc4c(NCC(c5ccccc5)c5ccccc5)nc(N5CC[C@@H](NC(=O)Nc6ccncc6)C5)nc43)[C@H](O)[C@@H]2O)n1` [Example 127, 1-((R)-1-{6-(2,2-Diphenyl-ethylamino)-9-[(1R,2S,3R,4S)-4-(4-ethyl-[1,2,3]triazol-2-yl)-2,3-dihydroxy-cyclopentyl]9H-purin-2-yl}-pyrrolidin-3-yl)-3-pyridin-4-yl-urea hydrochloride], the Ki falls from 71 nM to 3 nM (24-fold). The second binds more tightly here.

Compared with `O=C(NC1CCN(c2ccc(C(=O)O)cn2)CC1)N[C@@H]1CCN(c2nc(NCC(c3ccccc3)c3ccccc3)c3ncn([C@@H]4C[C@H](n5cc(CO)cn5)[C@@H](O)[C@H]4O)c3n2)C1` [Example 86, 4-(3-{(R)-1-[9-[(1R,2S,3R,4S)-2,3-Dihydroxy-4-(4-hydroxymethyl-pyrazol-1-yl)-cyclopentyl]-6-(2,2-diphenyl-ethylamino)-9H-purin-2-yl]-pyrrolidin-3-yl}-ureido)-3,4,5,6-tetrahydro-2H-[1,2′]bipyridinyl-5′-carboxylic acid trifluoroacetate], `CCc1nnn([C@H]2C[C@@H](n3cnc4c(NCC(c5ccccc5)c5ccccc5)nc(N5CC[C@@H](NC(=O)NCc6ccnc7ccccc67)C5)nc43)[C@H](O)[C@@H]2O)n1` [Example 150, 1-((R)-1-{6-(2,2-Diphenyl-ethylamino)-9-[(1R,2S,3R,4S)-4-(5-ethyl-tetrazol-2-yl)-2,3-dihydroxy-cyclopentyl]-9H-purin-2-yl}-pyrrolidin-3-yl)-3 quinolin-4-ylmethyl-urea hydrochloride] is 6.7-fold lower in Ki: 40 nM for the first, 6 nM for the second.

Going from `CCc1nnn([C@H]2C[C@@H](n3cnc4c(NCC(c5ccc(O)cc5)c5ccc(O)cc5)nc(N5CC[C@@H](NC(=O)Nc6ccncc6)C5)nc43)[C@H](O)[C@@H]2O)n1` [Example 109, 1-((R)-1-{6-[2,2-Bis-(4-hydroxy-phenyl)-ethylamino]-9-[(1R,2S,3R,4S)-4-(5-ethyl-tetrazol-2-yl)-2,3-dihydroxy-cyclopentyl]-9H-purin-2-yl}-pyrrolidin-3-yl)-3-pyridin-4-yl-urea hydrochloride] to `CCc1nnn([C@H]2C[C@@H](n3cnc4c(NCC(c5ccccc5)c5ccccc5)nc(N5CC[C@@H](NC(=O)Nc6cccc(-c7nnn[nH]7)c6)C5)nc43)[C@H](O)[C@@H]2O)n1` [Example 157, 1-((R)-1-{6-(2,2-Diphenyl-ethylamino)-9-[(1R,2S,3R,4S)-4-(5-ethyl-tetrazol-2-yl)-2,3-dihydroxy-cyclopentyl]-9H-purin-2-yl}-pyrrolidin-3-yl)-3-[3-(1H-tetrazol-5-yl)-phenyl]-urea hydrochloride], the Ki falls from 5 nM to 3 nM (1.7-fold).
